From patent publication US20110189675A1, “Method For Administering Anticoagulation Therapy” (Marshfield Clinic, priority 2007, published 2011)

Columns and labels:
[1] = Stable therapeutic warfarin dose by CYP2C9, VKORC1 and rs2108622 (CYP4F2) genotype, 424 subjects; assay type: in vivo, human
Text: The initial cohort was recruited at Marshfield Clinic, a multi-specialty group practice in Wisconsin as described.^6, 16 Patients were excluded from the study if they were known to have cancer, renal or hepatic insufficiency, or congestive heart failure.
The targeted human DMET 1.0 assay (Affymetrix, Inc, Santa Clara, Calif.) utilizes molecular inversion probes and GeneChip universal tag arrays to target 1228 single nucleotide polymorphisms (SNP) within 170 genes for metabolic enzymes and transport and regulatory proteins (Table 2).
The laboratory protocol followed the standard process described in the Targeted Genotyping System User Guide^25 except for a preliminary polymerase chain reaction (PCR)-amplification step aimed at resolving genotypes from 29 SNPs in regions containing pseudogenes and close homologues. GeneChip Targeted Genotyping Analysis software was used to make genotype calls and generate QC metrics including call rates, average signal, cluster quality, Hardy-Weinberg equilibrium, and reproducibility. […] Genotypes represented by the remaining 1217 SNP assays were called according to either predefined boundaries (derived from historical training sets) or dynamic clustering using the current data set. […] The remaining polymorphisms target rare mutations or SNPs prevalent in other racial groups.
VKORC1 genotypes were determined on 436 Marshfield Clinic samples as described^6 and on the remaining 61 samples using Invader® chemistry in a laboratory test developed with analyte specific reagents manufactured by Third Wave Technologies (TWT, Madison, Wis.). The laboratory developed assay used analyte-specific reagents that detect CYP2C9*2, CYP2C9*3, and VKORC1 (position −1639).^26

[2] = Pooled regression models of stable warfarin dose versus CYP4F2 rs2108622 genotype, three Caucasian cohorts; assay type: in vivo, human
Text: Therefore, we conducted multiple regression analyses only on the *1 genotypes (n=1009), and used the observed mean dose (log scale) as the predicted value for those with only non-wild CYP2C9 alleles (*2/*2, *2/*3, and *3/*3, n=42). Accordingly, our models that include genetic variables are composites of multiple regression and simple mean-based estimation approaches.
To assess the relative contribution of clinical and genetic factors, three models were developed using different sets of potential predictor variables: clinical factors only (gender, age, body surface area, and target international normalized ratio), clinical factors plus CYP2C9 and VKORC1, and clinical factors CYP2C9, VKORC1, and rs2108622. A modified step-down approach^29 was used, starting with a “full” model which included all potential predictors pertinent to that model, effects to allow the three study sites to differ, two-factor interactions (including those by site), and quadratic terms for age, body surface area, and target international normalized ratio. […] The regression models were finalized after evaluating residuals and excluding cases with large residuals as outliers (|Studentized Residual|>3).
The explanatory power for the three final models was assessed graphically and by using the adjusted r-squared (R^2adj). The R^2adj statistic measures the proportion of the total variability explained by the model with adjustment for the number of parameters in the model. The statistic was directly calculated to use all cases under analysis by pooling across both parts of the composite models and by applying the final regression model to any outliers dropped when estimating the parameters in the regression models.

With `CC(=O)CC(c1ccccc1)c1c(O)c2ccccc2oc1=O` (stereo not shown) [warfarin] the “Geometric Mean warfarin dose” value ([1]; CYP2C9 *1/*1, VKORC1 CC, rs2108622 CC, N=13) was 20.0 mg/week, the “Geometric Mean warfarin dose” value ([1]; CYP2C9 *1/*1, VKORC1 CC, rs2108622 CT, N=18) was 21.1 mg/week and the “Geometric Mean warfarin dose” value ([1]; CYP2C9 *1/*1, VKORC1 CC, rs2108622 TT, N=2) was 34.5 mg/week. The “Geometric Mean warfarin dose” value ([1]; CYP2C9 *1/*1, VKORC1 CG, rs2108622 CC, N=68) was 29.6 mg/week, the “Geometric Mean warfarin dose” value ([1]; CYP2C9 *1/*1, VKORC1 CG, rs2108622 CT, N=46) was 31.9 mg/week and the “Geometric Mean warfarin dose” value ([1]; CYP2C9 *1/*1, VKORC1 CG, rs2108622 TT, N=12) was 37.9 mg/week. For the same compound, the “Geometric Mean warfarin dose” value ([1]; CYP2C9 *1/*1, VKORC1 GG, rs2108622 CC, N=64) was 39.5 mg/week, the “Geometric Mean warfarin dose” value ([1]; CYP2C9 *1/*1, VKORC1 GG, rs2108622 CT, N=41) was 45.1 mg/week and the “Geometric Mean warfarin dose” value ([1]; CYP2C9 *1/*1, VKORC1 GG, rs2108622 TT, N=8) was 47.3 mg/week. The “Geometric Mean warfarin dose” value ([1]; CYP2C9 *1/*2, VKORC1 CC, rs2108622 CC, N=3) was 16.6 mg/week, the “Geometric Mean warfarin dose” value ([1]; CYP2C9 *1/*2, VKORC1 CC, rs2108622 CT, N=5) was 19.6 mg/week and the “Geometric Mean warfarin dose” value ([1]; CYP2C9 *1/*2, VKORC1 CC, rs2108622 TT, N=1) was 17.5 mg/week. The “Geometric Mean warfarin dose” value ([1]; CYP2C9 *1/*2, VKORC1 CG, rs2108622 TT, N=5) was 31.0 mg/week, the “Geometric Mean warfarin dose” value ([1]; CYP2C9 *1/*2, VKORC1 GG, rs2108622 CC, N=13) was 29.7 mg/week and the “Geometric Mean warfarin dose” value ([1]; CYP2C9 *1/*2, VKORC1 GG, rs2108622 CT, N=17) was 34.1 mg/week. The “Geometric Mean warfarin dose” value ([1]; CYP2C9 *1/*3, VKORC1 CC, rs2108622 CT, N=2) was 21.3 mg/week, the “Geometric Mean warfarin dose” value ([1]; CYP2C9 *1/*3, VKORC1 CG, rs2108622 CC, N=13) was 21.5 mg/week and the “Geometric Mean warfarin dose” value ([1]; CYP2C9 *1/*3, VKORC1 GG, rs2108622 CC, N=5) was 22.3 mg/week. For the same compound, the “Geometric Mean warfarin dose” value ([1]; CYP2C9 *1/*3, VKORC1 GG, rs2108622 TT, N=3) was 34.5 mg/week, the “Geometric Mean warfarin dose” value ([1]; CYP2C9 *2/*2, VKORC1 CG, rs2108622 CC, N=1) was 22.0 mg/week and the “Geometric Mean warfarin dose” value ([1]; CYP2C9 *2/*2, VKORC1 CG, rs2108622 CT, N=1) was 28.0 mg/week. For the same compound, the “Geometric Mean warfarin dose” value ([1]; CYP2C9 *2/*2, VKORC1 CG, rs2108622 TT, N=1) was 35.0 mg/week, the “Geometric Mean warfarin dose” value ([1]; CYP2C9 *2/*2, VKORC1 GG, rs2108622 CC, N=1) was 18.5 mg/week and the “Geometric Mean warfarin dose” value ([1]; CYP2C9 *2/*2, VKORC1 GG, rs2108622 CT, N=1) was 37.5 mg/week. For the same compound, the “Geometric Mean warfarin dose” value ([1]; CYP2C9 *2/*2, VKORC1 GG, rs2108622 TT, N=1) was 35.0 mg/week, the “Geometric Mean warfarin dose” value ([1]; CYP2C9 *2/*3, VKORC1 CC, rs2108622 CC, N=1) was 20.0 mg/week and the “Geometric Mean warfarin dose” value ([1]; CYP2C9 *2/*3, VKORC1 CG, rs2108622 CT, N=1) was 22.5 mg/week. The “Geometric Mean warfarin dose” value ([1]; CYP2C9 *2/*3, VKORC1 CG, rs2108622 TT, N=1) was 15.0 mg/week, the “Geometric Mean warfarin dose” value ([1]; CYP2C9 *2/*3, VKORC1 GG, rs2108622 CC, N=3) was 15.3 mg/week and the “Geometric Mean warfarin dose” value ([1]; CYP2C9 *3/*3, VKORC1 CG, rs2108622 CC, N=1) was 6.5 mg/week. The “Geometric Mean warfarin dose” value ([1]; CYP2C9 *3/*3, VKORC1 CG, rs2108622 CT, N=1) was 4.5 mg/week, the “increase in warfarin dose with each T allele (CYP4F2 effect, final pooled model)” value (“increase in warfarin dose” below) ([2]; Marshfield) was 12.8% and the “absolute contribution of CYP4F2 to stable warfarin dose” value ([2]; Marshfield cohort) was 26%. For the same compound, the “increase in warfarin dose” value ([2]; University of Florida) was 6.8%, the “increase in warfarin dose” value ([2]; Washington University in St. Louis) was 3.8% and the “absolute contribution of CYP4F2 to stable warfarin dose” value ([2]; Washington University in St. Louis cohort) was 8%. For the same compound, the “difference in warfarin dose requirement, two TT alleles versus two CC alleles of CYP4F2 rs2108622” value ([2]; pooled analyses, three Caucasian cohorts stabilized on warfarin) was “about 1 mg/day”.
